Assay results reported in patent publication US10556907B2 (AbbVie Inc., priority 2015, dated 2020).

Experiments:
Type in all cases: cell-based
[1] = target: T1, human EDG8 (S1PR5) receptor (Homo sapiens, UniProt Q9H228); experiment: Method 2: Aequorin assay, cell clone CHO-A21-EDG8 #12; details: agonist potency, determined with method 2 (symbols E-G); read-out: S1P5 EC50 range
T1 construct: expressed in transfected cells; host or cells: CHO (clone CHO-A21-EDG8 #12)
Protocol: (§1) Agonistic activity was measured using two different methods, described below.
(§2) Genetically Engineered Cells
(§3) Cell clone CHO-A21-Edg1 #17 carries the transgenes human EDG1 (S1PR1) receptor (Accession number NP_001391.2), mitochondrially targeted Aequorin (active part corresponds to accession number 1SL8_A) and chimaeric Gaqi5=Gaq modified with the 5 C-terminal amino-acids replaced with those of the Gai protein (DCGLF). CHO-A2-S1P3 Mix is a cell pool ectopically expressing human EDG3 (S1PR3) receptor (Accession number NP_005217.2) mitochondrially targeted Aequorin (active part has a sequence similar to accession number AY601106.1) and GNA16 (Accession number NP_002059.3). Cell clone CHO-A21-EDG8 #12 carries the transgenes human EDG8 (S1PR5) receptor (Accession number NP_110387.1), mitochondrially expressed Aequorin (active part corresponds to accession number 1SL8_A) and chimaeric Gaqi5 (Gaq modified to present the 5 last amino-acids of the Gai protein “DCGLF”; see above). Cells are grown to mid-log phase in culture medium (HAM's F12, 10% FBS, 100 IU/mL penicillin, 100 μg/mL streptomycin, 250 μg/mL Zeocin, 400 μg/mL G418). 18 hours prior to frozen cells preparation, the medium is changed to remove the antibiotics.
(§4) 18 hours prior to the test, vials of frozen cells are quickly thawed in a 37° C. water bath, cells are recovered by centrifugation and resuspended in assay buffer (DMEM/HAM's F12 with HEPES, without phenol red+0.1% fatty acid-free BSA). Cells are gently agitated in suspension overnight at RT in presence of 5 μM of Coelenterazine h (Molecular Probes). On the day of the test, cells are diluted to their final working concentrations in assay buffer and agitated in suspension for 1 h at RT. Cells are then placed in the luminescence reader (Hamamatsu Functional Drug Screening System 6000, FDSS6000). During cells incubation, compounds are prepared in 100% DMSO, and subsequently diluted in assay buffer. Compounds are then dispensed in the assay plate (black, clear-bottom, 384-well plate). After binding of agonists to the human S1P receptor the intracellular calcium concentration increases and binding of calcium to the Aequorin/Coelenterazine complex leads to an oxidation reaction of coelenterazine, which results in the production of […], coelenteramide, CO2 and light (Dmax 469 nm). The luminescent response is dependent on the agonist concentration. For agonist testing, 30 μL of cell suspension are injected on 30 μL of test compound or reference agonist in the assay plate. The resulting emission of light is recorded for 90 seconds using the FDSS6000. Dose response curves with the reference compounds are performed before testing the compounds. S1P is the reference agonist and JTE-013 the reference antagonist for S1P2. […]
(§5) Luminescence data are integrated over the reading interval for agonist and antagonist modes. To standardize the emission of recorded light (determination of the “100% signal”) across plates and across different experiments, some of the wells contain 100 μM digitonin or a saturating concentration of ATP (20 μM). Plates also contain the reference agonist at a concentration equivalent to the EC80 obtained during the test validation and the EC100. Dose-response data from test compounds were analyzed with XLfit (IDBS) software using nonlinear regression applied to a sigmoidal dose-response model and the following equation: • XL Fit fit Model 203: 4 Parameter Logistic Model • A: Bottom • B: TOP • C: LogEC50 • D: Hill fit=(A+((B−A)/(1+(((10^C)/x)^D)))) inv=((10^C)/((((B−A)/(y−A))−1)^(1/D))) res=(y−fit)

[2] = target: T2, human EDG1 (S1PR1) receptor (Homo sapiens, UniProt P21453); experiment: Method 2: Aequorin assay, cell clone CHO-A21-Edg1 #17; details: (2): determined with method 2; read-out: S1P1 EC50
T2 construct: expressed in transfected cells; host or cells: CHO (clone CHO-A21-Edg1 #17)
T2 sequence (P21453 whole entry): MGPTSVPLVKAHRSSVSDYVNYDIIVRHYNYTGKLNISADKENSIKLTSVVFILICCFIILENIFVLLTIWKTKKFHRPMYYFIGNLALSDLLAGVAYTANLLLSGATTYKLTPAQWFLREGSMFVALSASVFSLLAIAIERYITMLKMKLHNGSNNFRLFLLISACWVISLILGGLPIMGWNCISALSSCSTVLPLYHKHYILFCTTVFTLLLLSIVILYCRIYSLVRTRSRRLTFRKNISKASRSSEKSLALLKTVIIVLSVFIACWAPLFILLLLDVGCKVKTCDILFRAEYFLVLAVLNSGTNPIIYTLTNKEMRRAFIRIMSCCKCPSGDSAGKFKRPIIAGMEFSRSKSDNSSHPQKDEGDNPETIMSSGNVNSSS
Protocol: as §1, §2, §3, §4, §5

[3] = target: T3, human EDG3 (S1PR3) receptor (Homo sapiens, UniProt Q99500); experiment: Method 2: Aequorin assay, cell pool CHO-A2-S1P3 Mix; details: (2): determined with method 2
T3 construct: expressed in transfected cells; host or cells: CHO (cell pool CHO-A2-S1P3 Mix)
T3 sequence (Q99500 whole entry): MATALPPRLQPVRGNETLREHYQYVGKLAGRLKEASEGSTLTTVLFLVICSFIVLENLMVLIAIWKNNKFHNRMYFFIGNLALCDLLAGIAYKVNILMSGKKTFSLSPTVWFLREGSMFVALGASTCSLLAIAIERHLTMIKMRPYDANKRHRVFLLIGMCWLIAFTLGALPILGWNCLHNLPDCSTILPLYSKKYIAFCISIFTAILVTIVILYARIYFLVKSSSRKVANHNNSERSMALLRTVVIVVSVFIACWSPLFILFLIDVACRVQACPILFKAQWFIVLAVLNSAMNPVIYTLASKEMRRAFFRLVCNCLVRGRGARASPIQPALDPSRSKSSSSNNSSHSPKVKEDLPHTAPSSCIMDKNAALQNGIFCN
Protocol: as §1, §2, §3, §4, §5

human S1PR1 receptor = target: T4, human S1PR1 receptor (Homo sapiens, UniProt P21453); experiment: Method 1: intracellular Ca2+ release (FLIPR, Calcium 5) in recombinant CHO-K1 cells; details: (1): determined with method 1; read-out: S1P1 EC50
T4 construct: host or cells: CHO-K1
T4 sequence (P21453 whole entry): as the sequence (P21453 whole entry) above
How it was run: (§6)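 Agonist EC50; CHO-K1 + Gq/i5 + aequorin; Calcium 5 dye 1 h 37 °C, 45 min RT; serial-dilution compound add; FLIPR read; normalized to phospho-fingolimod.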

human S1PR3 receptor = target: T5, human S1PR3 receptor (Homo sapiens, UniProt Q99500); experiment: as above; details: (1): determined with method 1; read-out: S1P3 EC50
T5 construct: host or cells: CHO-K1
T5 sequence (Q99500 whole entry): as the sequence (Q99500 whole entry) above
How it was run: as §6

human S1PR4 receptor = target: T6, human S1PR4 receptor (Homo sapiens, UniProt O95977); experiment: as above; details: (1): determined with method 1; read-out: S1P4 EC50
T6 construct: host or cells: CHO-K1
T6 sequence (O95977 1-384): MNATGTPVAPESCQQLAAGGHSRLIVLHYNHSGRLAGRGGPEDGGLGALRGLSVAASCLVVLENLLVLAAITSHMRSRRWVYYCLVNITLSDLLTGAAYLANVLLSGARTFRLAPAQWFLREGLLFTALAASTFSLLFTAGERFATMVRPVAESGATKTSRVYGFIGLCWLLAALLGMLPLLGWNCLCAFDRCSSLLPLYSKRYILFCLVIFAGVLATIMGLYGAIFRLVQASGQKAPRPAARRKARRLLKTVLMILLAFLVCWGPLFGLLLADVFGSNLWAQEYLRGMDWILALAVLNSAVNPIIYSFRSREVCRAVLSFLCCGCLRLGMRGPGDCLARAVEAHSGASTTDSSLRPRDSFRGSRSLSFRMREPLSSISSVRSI
How it was run: as §6

human S1PR5 receptor = target: T7, human S1PR5 receptor (Homo sapiens, UniProt Q9H228); experiment: as above; details: agonist potency, determined with method 1 (symbols A-D); read-out: S1P5 EC50 range
T7 construct: host or cells: CHO-K1
T7 sequence (Q9H228 whole entry): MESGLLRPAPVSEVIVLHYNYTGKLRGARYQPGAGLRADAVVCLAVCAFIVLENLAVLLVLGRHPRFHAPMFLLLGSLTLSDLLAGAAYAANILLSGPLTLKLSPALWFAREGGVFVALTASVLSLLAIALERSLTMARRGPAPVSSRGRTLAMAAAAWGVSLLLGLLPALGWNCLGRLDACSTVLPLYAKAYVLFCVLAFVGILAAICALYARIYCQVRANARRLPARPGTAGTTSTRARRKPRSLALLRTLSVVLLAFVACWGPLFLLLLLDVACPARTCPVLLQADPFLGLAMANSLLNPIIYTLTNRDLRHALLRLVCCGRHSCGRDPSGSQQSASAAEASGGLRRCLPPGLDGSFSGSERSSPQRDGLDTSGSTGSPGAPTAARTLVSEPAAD
How it was run: as §6

T1 sequence (Q9H228 whole entry): as above

Row | EC50 [1] | EC50 [2] | EC50 [3] | EC50 (human S1PR1 receptor) | EC50 (human S1PR3 receptor) | EC50 (human S1PR4 receptor) | EC50 (human S1PR5 receptor) | SMILES
1 | 0.1 to 1 µM | > 1 µM | > 1 µM |  |  |  |  | CC(CN1CCc2cc(-c3ccc(OCc4ccccc4)cc3)nnc2C1)C(=O)O (centres unmarked) [Compound 206, 3-(3-(4-(benzyloxy)phenyl)-5,6-dihydropyrido[3,4-c]pyridazin-7(8H)-yl)-2-methylpropanoic acid]
2 | 1 to 10 µM | > 1 µM | > 1 µM |  |  |  |  | O=C(O)CCN1Cc2ccc(-c3ccc(OCc4ccccc4)cc3)nc2C1 [Compound 202, 3-(2-(4-(benzyloxy)phenyl)-5H-pyrrolo[3,4-b]pyridin-6(7H)-yl)propanoic acid]
3 | 1 to 10 µM | > 1 µM | > 1 µM |  |  |  |  | COc1cc(OCc2ccccc2)ccc1-c1ccc2c(n1)CCN(CCC(=O)O)C2 [Compound 138, 3-(2-(4-(benzyloxy)-2-methoxyphenyl)-7,8-dihydro-1,6-naphthyridin-6(5H)-yl)propanoic acid]
4 | 1 to 10 µM | > 1 µM | > 1 µM |  |  |  |  | O=C(O)CCN1CCc2cc(-c3ccc(OCc4ccccc4)cc3)nnc2C1 [Compound 207, 3-(3-(4-(benzyloxy)phenyl)-5,6-dihydropyrido[3,4-c]pyridazin-7(8H)-yl)propanoic acid]
5 | 0.1 to 1 µM | > 1 µM | > 1 µM |  |  |  |  | O=C(O)CCN1CCc2nc(-c3ccc(OCc4ccccc4)c(C(F)(F)F)c3)ccc2C1 [Compound 143, 3-(2-(4-(benzyloxy)-3-trifluoromethylphenyl)-7,8-dihydro-1,6-naphthyridin-6(5H)-yl)propanoic acid]
6 | 1 to 10 µM | > 1 µM | > 1 µM |  |  |  |  | CC(CN1Cc2ccc(-c3ccc(OCc4ccccc4)cc3)nc2C1)C(=O)O (centres unmarked) [Compound 199, 3-(2-(4-(benzyloxy)phenyl)-5H-pyrrolo[3,4-b]pyridin-6(7H)-yl)-2-methylpropanoic acid]
7 | 0.1 to 1 µM | > 1 µM | > 1 µM |  |  |  |  | O=C(O)CCN1CCc2nc(-c3ccc(OCc4ccc(F)cc4)c(Cl)c3)ccc2C1 [Compound 140, 3-(2-(3-chloro-4-((4-fluorobenzyl)oxy)phenyl)-7,8-dihydro-1,6-naphthyridin-6(5H)-yl)propanoic acid]
8 | 0.1 to 1 µM | > 1 µM | > 1 µM |  |  |  |  | O=C(O)CCN1CCc2nc(-c3ccc(OCc4ccccc4)c(F)c3)ccc2C1 [Compound 137, 3-(2-(4-(benzyloxy)-3-fluorophenyl)-7,8-dihydro-1,6-naphthyridin-6(5H)-yl)propanoic acid]
9 | 1 to 10 µM | > 1 µM | > 1 µM |  |  |  |  | COc1cc(-c2ccc3c(n2)CCN(CCC(=O)O)C3)ccc1OCc1ccccc1 [Compound 142, 3-(2-(4-(benzyloxy)-3-methoxyphenyl)-7,8-dihydro-1,6-naphthyridin-6(5H)-yl)propanoic acid]
10 | 0.1 to 1 µM | > 1 µM | > 1 µM |  |  |  |  | O=C(O)CCN1CCc2nc(-c3ccc(OCc4ccccc4F)c(Cl)c3)ccc2C1 [Compound 141]
11 |  |  |  | < 1 µM | > 1 µM | > 1 µM | < 0.01 µM | CC(CCN1CCc2nc(-c3ccc(OCc4ccc(Cl)cc4)cc3)c(F)cc2C1)C(=O)O (centres unmarked) [Compound 181]

The remaining lines, values behind:

Row | SMILES | EC50 [1] | EC50 [2] | EC50 [3] | EC50 (human S1PR1 receptor) | EC50 (human S1PR3 receptor) | EC50 (human S1PR4 receptor) | EC50 (human S1PR5 receptor)
12 | CC(CC(=O)O)N1CCc2nc(-c3ccc(OCc4ccccc4)cc3)ccc2C1 (centres unmarked) [Compound 113, 3-(2-(4-(benzyloxy)phenyl)-7,8-dihydro-1,6-naphthyridin-6(5H)-yl)butanoic acid] | 1 to 10 µM | > 1 µM | > 1 µM |  |  |  | 
13 | O=C(O)CCN1CCc2nc(-c3ccc(OCc4c(Cl)cccc4Cl)cc3)ncc2C1 [Compound 70, 3-(2-(4-((2,6-dichlorobenzyl)oxy)phenyl)-7,8-dihydropyrido[4,3-d]pyrimidin-6(5H)-yl)propanoic acid] | 0.1 to 1 µM | > 1 µM | > 1 µM |  |  |  | 
14 | O=C(O)CCN1CCc2nc(-c3ccc(OCc4ccccc4)cc3)ccc2C1 [Compound 129, 3-(2-(4-(benzyloxy)phenyl)-7,8-dihydro-1,6-naphthyridin-6(5H)-yl)propanoic acid] | 0.1 to 1 µM | > 1 µM | > 1 µM |  |  |  | 
15 | Cc1cc(OCc2ccccc2)ccc1-c1ccc2c(n1)CCN(CCC(=O)O)C2 [Compound 135, 3-(2-(4-(benzyloxy)-2-methylphenyl)-7,8-dihydro-1,6-naphthyridin-6(5H)-yl)propanoic acid] | 1 to 10 µM | > 1 µM | > 1 µM |  |  |  | 
16 | O=C(O)CCN1CCc2nc(-c3ccc(OCc4cccc(F)c4F)cc3)ncc2C1 [Compound 69, 3-(2-(4-((2,3-difluorobenzyl)oxy)phenyl)-7,8-dihydropyrido[4,3-d]pyrimidin-6(5H)-yl)propanoic acid] | 1 to 10 µM | > 1 µM | > 1 µM |  |  |  | 
17 | O=C(O)CCN1CCc2nc(-c3ccc(OCc4ccccc4)cc3C(F)(F)F)ccc2C1 [Compound 136, 3-(2-(4-(benzyloxy)-2-trifluoromethylphenyl)-7,8-dihydro-1,6-naphthyridin-6(5H)-yl)propanoic acid] | 1 to 10 µM | > 1 µM | > 1 µM |  |  |  | 
18 | O=C(O)CCN1CCc2nc(-c3ccc(OCc4c(Cl)cccc4Cl)cc3)ccc2C1 [Compound 130, 3-(2-(4-((2,6-dichlorobenzyl)oxy)phenyl)-7,8-dihydro-1,6-naphthyridin-6(5H)-yl)propanoic acid] | 0.1 to 1 µM | > 1 µM | > 1 µM |  |  |  | 
19 | O=C(O)CCN1CCc2nc(-c3ccc(OCc4cccc(F)c4F)cc3)ccc2C1 [Compound 131, 3-(2-(4-((2,3-difluorobenzyl)oxy)phenyl)-7,8-dihydro-1,6-naphthyridin-6(5H)-yl)propanoic acid] | < 0.1 µM | > 1 µM | > 1 µM |  |  |  | 
20 | CC(CN1CCc2nc(-c3ccc(OCc4cccc(F)c4)cc3)ncc2C1)C(=O)O (centres unmarked) [Compound 8, 3-(2-(4-((3-fluorobenzyl)oxy)phenyl)-7,8-dihydropyrido[4,3-d]pyrimidin-6(5H)-yl)-2-methylpropanoic acid] |  |  |  | > 1 µM | > 1 µM | > 1 µM | < 0.01 µM
